Results published in patent US20250376472A1, “3-(PHENYLSULFONYL)-[1,2,3]TRIAZOLO[1,5A]QUINAZOLIN-5(4H)-ONE DERIVATIVES” (priority 2022, published 2025).

Biological target: T1, AgrA (Staphylococcus aureus, UniProt P0A0I7)
T1 construct: endogenous in cells; host or cells: S. aureus USA300 strain UAMS-1625 carrying a P3-lacZ reporter plasmid
Assay: cell-based
Parameters: species or system S. aureus
Conditions: for Ratio IC50 (in presence of HSA)/IC50 (in absence of HSA): 40 mg/mL HSA versus no HSA
Method: The inventive compounds are 3-(phenylsulfonyl)-[1,2,3]triazolo[1,5a]quinazolin-5(4h)-one derivatives comprising an N-bound piperazine or homopiperazine at the 8-position of the [1,2,3]triazolo[1,5a]quinazolin-5(4h)-one core, further substituted (on the second nitrogen atom) by an (optionally substituted) acetyl or propionyl amide group. […] Specifically, the reporter gene lacZ (which encodes the protein product β-galactosidase) was transfected into S. aureus with a plasmid under control of the P3 promoter. The compounds were serially diluted in lysogeny broth (LB), and incubated with S. aureus. Following incubation, the S. aureus cells were lysed and treated with 4-methylumbelliferyl-galactopyranoside (MUG). The β-galactosidase produced by expression of lacZ cleaved the MUG into galactopyranose and 4-methylumbelliferone, which was measured by fluorescence.
The resulting reporter strain was used to measure AgrA inhibitory activity as follows. From an overnight culture plate, cells were resuspended in 0.9% (w/v) saline solution and bacterial inoculum was prepared in LB medium with 5×10^5 CFU/ml. Compounds were two-fold serially diluted in LB and 50 μL of this 10× concentrated samples were added into the 96-deep well plate. 500 μL of bacterial suspension was finally added to the compounds or DMSO control. Plates were covered and incubated with shaking at 37° C. After 18 hours incubation, 100 μL was transferred to a new clear 96-well plate and the OD600 was measured using a TECAN Infinite F200 microplate reader to control for growth inhibition. Another 100 μL was transferred to a new black 96-well plate containing 30 μL of lysis buffer (20 mM Tris/HCl, 3 mM MgCl2, 0.5% Tween 20 (v/v), 0.5% NP-40 (v/v)) and the plate was incubated with shaking at 37° C. for 60 min. 20 μL of the substrate MUG (4-Methylumbelliferyl O-D-galactopyranoside) at 0.25 mg/ml was added and the fluorescence (excitation: 360 nm, emission: 450 mu) was measured with a TECAN Infinite F200 microplate reader after 3 hours incubation at 37° C. with shaking. The IC50 was determined using GraphPad PRISM after normalization to DMSO control.

[1] = IC50 at 40 mg/mL HSA, LB medium supplemented with human serum albumin 40 mg/mL
[2] = IC50 without HSA, LB medium, no human serum albumin, 18 hours incubation
[3] = LB medium supplemented with human serum albumin 40 mg/mL
[4] = LB medium, no human serum albumin, 18 hours incubation

T1 sequence (P0A0I7 whole entry): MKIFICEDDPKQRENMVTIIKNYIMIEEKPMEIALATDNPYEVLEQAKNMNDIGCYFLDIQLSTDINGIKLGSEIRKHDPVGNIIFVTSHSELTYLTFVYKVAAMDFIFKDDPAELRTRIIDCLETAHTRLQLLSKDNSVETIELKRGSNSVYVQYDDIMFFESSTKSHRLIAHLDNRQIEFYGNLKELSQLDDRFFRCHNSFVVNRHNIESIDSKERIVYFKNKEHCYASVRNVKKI

Structure (SMILES) | IC50 [1] [µM] | IC50 [2] [µM] | Ratio IC50 (in presence of HSA)/IC50 (in absence of HSA) | IC50 at 40 mg/mL HSA [3] | IC50 without HSA [4]
Cc1ccc(S(=O)(=O)c2nnn3c2[nH]c(=O)c2ccc(N4CCN(CC(=O)NCC5CCCO5)CC4)cc23)c(C)c1 (stereo not drawn) [Compound 96] | 17.3 to 86.3 | < 1.73 |  |  | 
Cc1ccc(S(=O)(=O)c2nnn3c2[nH]c(=O)c2ccc(N4CCN(CC(=O)NCCCN5CCCC5=O)CC4)cc23)c(C)c1 [Compound 97] | 16.1 to 80.5 | 1.61 to 8.05 |  |  | 
Cc1ccc(S(=O)(=O)c2nnn3c2[nH]c(=O)c2ccc(N4CCCN(CC(=O)NC5CCN(C)CC5)CC4)cc23)c(C)c1 [Compound 102] |  |  | +++ (+++: ratio ≤ 25) | ++ (++: 10 μg/mL < IC50 ≤ 50 μg/mL) | ++ (++: 1 μg/mL < IC50 ≤ 5 μg/mL)
Cc1ccc(S(=O)(=O)c2nnn3c2[nH]c(=O)c2ccc(N4CCCN(CC(=O)NC5CCOCC5)CC4)cc23)c(C)c1 [Compound 103] | < 16.8 | 1.68 to 8.42 |  |  | 
Cc1ccc(S(=O)(=O)c2nnn3c2[nH]c(=O)c2ccc(N4CCN(CC(=O)Nc5ccccc5)CC4)cc23)c(C)c1 [Compound 104] | 17.5 to 87.5 | < 1.75 |  |  | 
Cc1ccc(S(=O)(=O)c2nnn3c2[nH]c(=O)c2ccc(N4CCN(CC(=O)NCc5ccccc5)CC4)cc23)c(C)c1 [Compound 106] | 17.1 to 85.4 | < 1.71 |  |  | 
Cc1ccc(S(=O)(=O)c2nnn3c2[nH]c(=O)c2ccc(N4CCN(CC(=O)NCc5cccc(O)c5)CC4)cc23)c(C)c1 [Compound 108] | 16.6 to 83.1 | < 1.66 |  |  | 
Cc1ccc(S(=O)(=O)c2nnn3c2[nH]c(=O)c2ccc(N4CCN(CC(=O)NCCc5ccccc5)CC4)cc23)c(C)c1 [Compound 109] | 16.7 to 83.4 | < 1.67 |  |  | 
Cc1ccc(S(=O)(=O)c2nnn3c2[nH]c(=O)c2ccc(N4CCN(CC(=O)NCc5cccnc5)CC4)cc23)c(C)c1 [Compound 111] | 17 to 85.2 | < 1.7 |  |  | 
Cc1ccc(S(=O)(=O)c2nnn3c2[nH]c(=O)c2ccc(N4CCN(CC(=O)NCc5ccco5)CC4)cc23)c(C)c1 [Compound 113] | 17.4 to 86.9 | < 1.74 |  |  | 
Cc1ccc(S(=O)(=O)c2nnn3c2[nH]c(=O)c2ccc(N4CCN(CC(=O)NCc5cocn5)CC4)cc23)c(C)c1 [Compound 114] | 17.3 to 86.7 | < 1.73 |  |  | 
Cc1ccc(S(=O)(=O)c2nnn3c2[nH]c(=O)c2ccc(N4CCN(CC(=O)NCCn5cccc5)CC4)cc23)c(C)c1 [Compound 115] | 17 to 84.9 | < 1.7 |  |  | 
Cc1ccc(S(=O)(=O)c2nnn3c2[nH]c(=O)c2ccc(N4CCN(CC(=O)NCCc5cccs5)CC4)cc23)c(C)c1 [Compound 116] | 16.5 to 82.5 | < 1.65 |  |  | 
Cc1ccc(S(=O)(=O)c2nnn3c2[nH]c(=O)c2ccc(N4CCN(CC(=O)NCCn5ccnc5)CC4)cc23)c(C)c1 [Compound 117] | 17 to 84.8 | 1.7 to 8.48 |  |  | 
Cc1ccc(S(=O)(=O)c2nnn3c2[nH]c(=O)c2ccc(N4CCCN(CC(=O)Nc5ccccc5)CC4)cc23)c(C)c1 [Compound 122] | 17.1 to 85.4 | < 1.71 |  |  | 
Cc1ccc(S(=O)(=O)c2nnn3c2[nH]c(=O)c2ccc(N4CCCN(CC(=O)NCc5ccccc5)CC4)cc23)c(C)c1 [Compound 123] | 16.7 to 83.4 | < 1.67 |  |  | 
Cc1ccc(S(=O)(=O)c2nnn3c2[nH]c(=O)c2ccc(N4CCN(CC(=O)N5CCC6(CCCC6)C5)CC4)cc23)c(C)c1 [Compound 126] | 16.6 to 82.8 | < 1.66 |  |  | 
Cc1ccc(S(=O)(=O)c2nnn3c2[nH]c(=O)c2ccc(N4CCN(CC(=O)N5CCC6(CCN(C)CC6)CC5)CC4)cc23)c(C)c1 [Compound 127] | 15.5 to 77.3 | < 1.55 |  |  | 
Cc1ccc(S(=O)(=O)c2nnn3c2[nH]c(=O)c2ccc(N4CCN(CC(=O)N5CCCC6(CCN(C)CC6)C5)CC4)cc23)c(C)c1 [Compound 128] | 15.5 to 77.3 | 1.55 to 7.73 |  |  | 
Cc1ccc(S(=O)(=O)c2nnn3c2[nH]c(=O)c2ccc(N4CCN(CC(=O)N5CCN6CCOCC6C5)CC4)cc23)c(C)c1 (stereo not drawn) [Compound 129] |  |  | +++ (+++: ratio ≤ 25) | +++ (+++: IC50 ≤ 10 μg/mL) | +++ (+++: IC50 ≤ 1 μg/mL)
